Earlier results in patent publication US6528705B1, “Method for improving productivity of higher plants” (Nara Institute of Science and Technology, priority 1999, dated 2003).
Read-outs that look alike come from different tables or passages of the source. Each block holds one compound with its values, some of them ahead of it.

What was measured:
[1] = test system: Synechococcus PCC 7942 FBPase-I (fructose-1,6-bisphosphatase/sedoheptulose-1,7-bisphosphatase, FBPase/SBPase), wild type, sequence number 1; details: purified enzyme
[2] = test system: Synechococcus PCC 7942 FBPase-I (fructose-1,6-bisphosphatase/sedoheptulose-1,7-bisphosphatase, FBPase/SBPase), wild type, sequence number 1
[3] = test system: Synechococcus PCC 7942 FBPase-I (fructose-1,6-bisphosphatase/sedoheptulose-1,7-bisphosphatase, FBPase/SBPase), wild type, sequence number 1; details: after the treatment by 1 mM H2O2; purified enzyme

SMILES: O=P(O)(O)OC[C@H]1O[C@@](CO)(OP(=O)(O)O)[C@@H](O)[C@@H]1O [fructose-2,6-P2]
inhibition of enzyme activity ([2]; fructose-2,6-P2, concentration not given): not inhibited

SMILES: Nc1ncnc2c1ncn2[C@@H]1O[C@H](COP(=O)(O)O)[C@@H](O)[C@H]1O [AMP]
Ki ([2]; inhibition of the enzyme activity by AMP): 260 µM

SMILES: OO [H2O2]
native enzyme activity retained [3]: more than 80%

Now from value to compound:

Km ([1]; substrate Sed1,7-P2, read-out: Km for Sed1,7-P2): 118 µM
SMILES: O=P(O)(O)OC[C@@H](O)[C@H]1OC(O)(COP(=O)(O)O)[C@@H](O)[C@@H]1O (some centres unmarked) [Sed1,7-P2, sedoheptulose-1,7-bisphosphate]

Km ([1]; substrate Fru1,6-P2, read-out: Km for Fru1,6-P2): 52 µM
SMILES: O=P(O)(O)OC[C@H]1OC(O)(COP(=O)(O)O)[C@@H](O)[C@@H]1O (some centres unmarked) [Fru1,6-P2, fructose-1,6-bisphosphate]
